Data reported in PubChem BioAssay AID330 (DTP/NCI, 2004).
Where “and” joins values, the source holds several entries; their conditions need not be identical. Identical values can stand only once. Inconclusive results and toxic doses are left out.

Tested on: P388 leukemia ip, CD2F1 mice, survival T/C
Assay: NCI In Vivo Anticancer Drug Screen. Data for tumor model P388 Leukemia (intraperitoneal) in CD2F1 (CDF1) mice
Settings: endpoint: median survival time, higher = longer survival
In short: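 Mice carrying the transplanted tumor received test compound or vehicle. Survival was recorded in each group, and the value is the treated-group measurement divided by that of the vehicle-treated control group.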

[1] = dose: 60.0 mg/kg/injection, schedule: Q01DX005 (ip), vehicle: Klucel (hydroxypropylcellulose) (HPC)
[2] = dose: 120.0 mg/kg/injection, schedule: Q01DX005 (ip), vehicle: Klucel (hydroxypropylcellulose) (HPC)
[3] = dose: 240.0 mg/kg/injection, schedule: Q01DX005 (ip), vehicle: Klucel (hydroxypropylcellulose) (HPC)
[4] = dose: 60.0 mg/kg/injection, schedule: Q01DX005 (ip), vehicle: saline with Tween-80
[5] = dose: 120.0 mg/kg/injection, schedule: Q01DX005 (ip), vehicle: saline with Tween-80
[6] = dose: 50.0 mg/kg/injection, schedule: Q01DX009 (ip), vehicle: saline
[7] = dose: 100.0 mg/kg/injection, schedule: Q01DX009 (ip), vehicle: saline
[8] = dose: 200.0 mg/kg/injection, schedule: Q01DX009 (ip), vehicle: saline
[9] = dose: 15.0 mg/kg/injection, schedule: Q01DX005 (ip), vehicle: saline with Tween-80
[10] = dose: 240.0 mg/kg/injection, schedule: Q01DX005 (ip), vehicle: saline with Tween-80
[11] = dose: 100.0 mg/kg/injection, schedule: Q01DX009 (ip), vehicle: saline with Tween-80
[12] = dose: 200.0 mg/kg/injection, schedule: Q01DX009 (ip), vehicle: saline with Tween-80
[13] = dose: 12.5 mg/kg/injection, schedule: Q01DX009 (ip), vehicle: saline with Tween-80

O=C(O)CC(SCP(=O)(O)O)C(=O)O (stereo not drawn)
T/C (dose: 30.0 mg/kg/injection, schedule: Q01DX005 (ip), vehicle: saline): 98 % of control | T/C (dose: 60.0 mg/kg/injection, schedule: Q01DX005 (ip), vehicle: saline): 91 % of control | T/C (dose: 120.0 mg/kg/injection, schedule: Q01DX005 (ip), vehicle: saline): 89 % of control | T/C (dose: 240.0 mg/kg/injection, schedule: Q01DX005 (ip), vehicle: saline): 93 % of control and 97 % of control

c1cc(-c2ncc3ccncc3n2)ccn1
T/C [1]: 109 % of control | T/C [2]: 100 % of control | T/C [3]: 98 % of control

COC(=O)c1nc(N)nc(C(=O)OC)c1C(=O)C(C)C
T/C [4]: 97 % of control | T/C [5]: 98 % of control

CC(/C=N\Nc1ccc(Cl)cc1)=N/NC(N)=S
T/C (dose: 100.0 mg/kg/injection, schedule: Q04DX002 (ip), vehicle: saline): 99 % of control | T/C (dose: 200.0 mg/kg/injection, schedule: Q04DX002 (ip), vehicle: saline): 98 % of control

Cc1nn(CCO)c(=O)c(C#N)c1C
T/C (dose: 25.0 mg/kg/injection, schedule: Q04DX002 (ip), vehicle: distilled water + Tween-80): 103 % of control | T/C (dose: 50.0 mg/kg/injection, schedule: Q04DX002 (ip), vehicle: distilled water + Tween-80): 108 % of control | T/C (dose: 100.0 mg/kg/injection, schedule: Q04DX002 (ip), vehicle: distilled water + Tween-80): 101 % of control | T/C (dose: 200.0 mg/kg/injection, schedule: Q04DX002 (ip), vehicle: distilled water + Tween-80): 94 % of control

CN1c2ccccc2C2=C(C3=C(CS2)C(=O)CCS3)S1(=O)=O
T/C (dose: 100.0 mg/kg/injection, schedule: Q01DX001 (ip), vehicle: saline with Tween-80): 100 % of control | T/C (dose: 200.0 mg/kg/injection, schedule: Q01DX001 (ip), vehicle: saline with Tween-80): 99 % of control | T/C (dose: 400.0 mg/kg/injection, schedule: Q01DX001 (ip), vehicle: saline with Tween-80): 100 % of control

O=C1NC(=O)C2=C1CCC2
T/C (dose: 3.13 mg/kg/injection, schedule: Q01DX009 (ip), vehicle: distilled water + Tween-80): 98 % of control | T/C (dose: 6.25 mg/kg/injection, schedule: Q01DX009 (ip), vehicle: distilled water + Tween-80): 104 % of control | T/C (dose: 12.5 mg/kg/injection, schedule: Q01DX009 (ip), vehicle: distilled water + Tween-80): 114 % of control

NC(Cc1ccc(OC(c2ccccc2)(c2ccccc2)c2ccccc2)cc1)C(=O)O (stereo not drawn)
T/C [6]: 101 % of control | T/C [7]: 96 % of control | T/C [8]: 90 % of control

CCCC(=O)OC1C=C2N3C(=O)C4CC56C(=CC(OC(C)=O)C7OC75)N4C(=O)C3CC26C2OC12 (stereo not drawn)
T/C (dose: 0.13 mg/kg/injection, schedule: Q01DX005 (ip), vehicle: Klucel (hydroxypropylcellulose) (HPC)): 100 % of control | T/C (dose: 0.25 mg/kg/injection, schedule: Q01DX005 (ip), vehicle: Klucel (hydroxypropylcellulose) (HPC)): 100 % of control | T/C (dose: 0.5 mg/kg/injection, schedule: Q01DX005 (ip), vehicle: Klucel (hydroxypropylcellulose) (HPC)): 100 % of control | T/C (dose: 1.0 mg/kg/injection, schedule: Q01DX005 (ip), vehicle: Klucel (hydroxypropylcellulose) (HPC)): 107 % of control | T/C (dose: 2.0 mg/kg/injection, schedule: Q01DX005 (ip), vehicle: Klucel (hydroxypropylcellulose) (HPC)): 99 % of control and 103 % of control | T/C (dose: 4.0 mg/kg/injection, schedule: Q01DX005 (ip), vehicle: Klucel (hydroxypropylcellulose) (HPC)): 96 % of control

Cc1ccc(NC(=O)/C(Cl)=C(\Cl)C(=O)O)cc1C
T/C (dose: 3.75 mg/kg/injection, schedule: Q01DX005 (ip), vehicle: saline with Tween-80): 96 % of control | T/C (dose: 7.5 mg/kg/injection, schedule: Q01DX005 (ip), vehicle: saline with Tween-80): 102 % of control | T/C [9]: 103 % of control and 110 % of control | T/C [4]: 104 % of control

COc1cc(/C=C2\SC(=S)N(C3CC3)C2=O)ccc1O
T/C [6]: 97 % of control | T/C [7]: 107 % of control | T/C [8]: 104 % of control and 91 % of control

N=C1C=CC2C(=Nc3ccccc3[N+]2=O)N1CCO (stereo not drawn)
T/C [9]: 99 % of control and 105 % of control | T/C (dose: 30.0 mg/kg/injection, schedule: Q01DX005 (ip), vehicle: saline with Tween-80): 101 % of control and 112 % of control | T/C [4]: 100 % of control and 103 % of control

CCOc1ccc(NC2OC(CO)C(O)C(O)C2NC(C)=O)cc1 (stereo not drawn)
T/C (dose: 50.0 mg/kg/injection, schedule: Q01DX005 (ip), vehicle: saline with Tween-80): 105 % of control | T/C (dose: 100.0 mg/kg/injection, schedule: Q01DX005 (ip), vehicle: saline with Tween-80): 101 % of control | T/C (dose: 200.0 mg/kg/injection, schedule: Q01DX005 (ip), vehicle: saline with Tween-80): 96 % of control

O=C1NC(O)(c2ccccc2)c2cnncc21 (stereo not drawn)
T/C [4]: 90 % of control | T/C [5]: 93 % of control | T/C [10]: 93 % of control

Cc1c(-c2ccccc2)noc1-n1nnc2ccccc2c1=O
T/C [4]: 100 % of control | T/C [5]: 100 % of control | T/C [10]: 89 % of control

CC(C)(Cl)C1ON1C(C)(C)C (stereo not drawn)
T/C [4]: 107 % of control | T/C [5]: 107 % of control | T/C [10]: 108 % of control

CCCOP(=O)(CCl)OCCC
T/C [7]: 90 % of control | T/C [8]: 95 % of control | T/C (dose: 400.0 mg/kg/injection, schedule: Q01DX009 (ip), vehicle: saline): 109 % of control

Cn1cc([N+](=O)[O-])c([N+](=O)[O-])c1
T/C (dose: 50.0 mg/kg/injection, schedule: Q01DX009 (ip), vehicle: saline with Tween-80): 102 % of control | T/C [11]: 103 % of control | T/C [12]: 102 % of control

CCO/C=N/NC(=O)CNC(=O)C=[N+]=[N-]
T/C (dose: 180.0 mg/kg/injection, schedule: Q01DX009 (ip), vehicle: water): 172 % of control

CC1(C)OC2(CC1C1(C)C=CC(=O)O1)CC1C(O)(CCC34CC13C(=O)OC4c1ccoc1)O2 (stereo not drawn)
T/C [6]: 100 % of control | T/C [7]: 95 % of control | T/C [8]: 104 % of control

Clc1cccc2c(SCCCCCCCSc3c4ccccc4nc4c(Cl)cccc34)c3ccccc3nc12
T/C [1]: 93 % of control | T/C [2]: 91 % of control | T/C [3]: 90 % of control

CCCCCCCCCCCCCCCC(=O)N(CCCCN(CCCN(C)C)C(=O)CCCCCCCCCCCCCCC)CCCN(C)C
T/C [13]: 90 % of control | T/C (dose: 25.0 mg/kg/injection, schedule: Q01DX009 (ip), vehicle: saline with Tween-80): 90 % of control

CCCCN1C(=O)C2C3CCC(O3)C2C1=O (stereo not drawn)
T/C [4]: 100 % of control | T/C [5]: 92 % of control

CCN(CC)CCOC(=O)C(c1ccccc1)C(C)(O)CC (stereo not drawn)
T/C (dose: 25.0 mg/kg/injection, schedule: Q01DX009 (ip), vehicle: saline): 105 % of control | T/C [6]: 100 % of control | T/C [7]: 115 % of control

CC(=O)ON(C(C)=O)c1ccc(C(=O)OC2(C)CC(C)(C)N=N2)cc1 (stereo not drawn)
T/C [13]: 86 % of control | T/C [11]: 87 % of control | T/C [12]: 106 % of control

CC(NC(=O)OCc1ccccc1)C(=O)NC(CCC(=O)O)C(=O)O (stereo not drawn)
T/C (dose: 50.0 mg/kg/injection, schedule: Q01DX005 (ip), vehicle: saline): 97 % of control | T/C (dose: 100.0 mg/kg/injection, schedule: Q01DX005 (ip), vehicle: saline): 101 % of control | T/C (dose: 200.0 mg/kg/injection, schedule: Q01DX005 (ip), vehicle: saline): 106 % of control

Oc1ccc[nH]c1=S
T/C (dose: 12.5 mg/kg/injection, schedule: Q01DX009 (ip), vehicle: saline): 104 % of control and 105 % of control

c1ccc(-c2nc3n(n2)CCC(c2ccccc2)S3)cc1 (stereo not drawn)
T/C [4]: 92 % of control | T/C [5]: 89 % of control | T/C [10]: 87 % of control

OC1(C(O)(c2ccc(-c3ccccc3)cc2)c2ccc(-c3ccccc3)cc2)CC=CCC1 (stereo not drawn)
T/C [4]: 105 % of control | T/C [5]: 92 % of control | T/C [10]: 90 % of control

CC(c1ccc2c(c1)CCC1C2C2OC2C2(O)CC=CC(=O)C12C)C1CC2(C)OC2(C)C(O)O1 (stereo not drawn)
T/C (dose: 3.0 mg/kg/injection, schedule: Q01DX009 (ip), vehicle: saline with Tween-80): 113 % of control | T/C (dose: 6.0 mg/kg/injection, schedule: Q01DX009 (ip), vehicle: saline with Tween-80): 100 % of control | T/C (dose: 12.0 mg/kg/injection, schedule: Q01DX009 (ip), vehicle: saline with Tween-80): 109 % of control | T/C (dose: 24.0 mg/kg/injection, schedule: Q01DX009 (ip), vehicle: saline with Tween-80): 107 % of control | T/C (dose: 48.0 mg/kg/injection, schedule: Q01DX009 (ip), vehicle: saline with Tween-80): 102 % of control

CCOC1CC(=O)C2(C)C3CCC4(C)C(C(C)C5CC(C)=C(C)C(=O)O5)CCC4C3CC3OC32C1O (stereo not drawn)
T/C (dose: 9.12 mg/kg/injection, schedule: Q01DX009 (ip), vehicle: saline + alcohol): 101 % of control | T/C (dose: 18.25 mg/kg/injection, schedule: Q01DX009 (ip), vehicle: saline + alcohol): 96 % of control | T/C (dose: 36.5 mg/kg/injection, schedule: Q01DX009 (ip), vehicle: saline + alcohol): 100 % of control
